# Results: patent US7871978B2, “Bone tropic peptides” (University of Virginia Patent Foundation, priority 2004, dated 2011)
# Tests used:
# [1] = system: bovine aortic endothelial cells; experiment: Effect of peptides on adherent bovine aortic endothelial cells on fibronectin or collagen; type: cell-based; conditions: 0.1M biotinylated peptide, 1 hour; cells adhered four hours on fibronectin or collagen
# Protocol: Peptides from the phage display project were added to bovine aortic endothelial cells in culture. The endothelial cells had adhered to a surface coated with collagen or with fibronectin.
# Experiment 1: Bovine aortic endothelial cells were plated on glass slides that were coated either fibronectin or collagen. The cell density was 5,000 cells/well. After the cells adhered for four hours, 0.1M of biotinylated peptide was added to each well. The following peptides were used: L1, L2, L5, L6, L7, L12, L13, L14, L19, R1, R3, and R8.
# To perform this experiment, the media was removed and the cells were rinsed with 1×PBS plus 1% BSA three times. Peptides were diluted in 1×PBS plus 1% BSA, added to cells and incubated for 1 hour. The cells were rinsed three times with 1% BSA in PBS, and fixed with 2% parafomaldehyde. Aldehyde groups were blocked with 0.2 M HCl-glycine in PBS, the cells were rinsed three times with 1% BSA in PBS and ExtrAvidin-FITC (1:200 dilution) was added and incubated overnight at 4° C. The cells were rinsed three times with 1% BSA in PBS. The chambers and the gasket were removed from each slide, Vectashield was added, covered and viewed on a Nikon microscope. Images were acquired using a Coolsnap digital camera and Metavue software. […]
# Experiment 3: The cells were adherent for about 6 hours and peptides at various concentrations were added to the cells. The concentrations of each of the peptides used in this experiment were: 0.1M, 0.01M, 0.001M and 0.0001M biotinylated peptide. The following peptides were tested: L1, L5, L6, L7, L13, L14, R1, R3, R8, DIP1 and PBS control (SEQ ID NOs:1, 3, 4, 5, 8, 9, 11, 13, 14, and 29).
# bone and bone marrow = experiment: In vivo biopanning with 12-mer peptide phage display library; parameters: species or system BALB/c mice; conditions: for PERCENT FREQUENCY: phage eluted from bone and bone marrow; for PHAGE SEQUENCE FREQUENCY (number of times the sequence was found in a group of plaques): phage eluted from bone and bone marrow after repeated rounds
# From the text: The Ph.D.-12 Phage Display Peptide Library Kit (New England Biolabs, Beverly, Mass.) used in this study is based on a combinatorial library of random peptide 12-mers fused to a minor coat protein (pIII). […] The peptide is followed by a short spacer of four amino acid residues, the first three residues of which are glycine and the fourth of which is serine, and then the wild-type III sequence. The library consists of approximately 2.7×10^9 electroporated sequences, amplified once to yield approximately 55 copies of each sequence.
# For in vivo biopanning, BALB/c mice 8 weeks of age were injected 3.4×10^10 pfu of phage into the heart. The animals were euthanized after 5 minutes, and the tissues (bone, bone marrow, kidney, liver, and spleen) were collected for analysis. The bound phage was eluted according the manufacturer's instructions. The eluted phage was titered, amplified, purified, and injected again at the same concentration.
# The frequency of each peptide in bone and bone marrow was compared with its location in other tissues such as liver, kidney, lung, spleen, and brain. Thirteen unique peptide sequences eluted from bone and marrow were identified were identified by sequencing phage DNA. The peptides were synthesized using the polystyrene solid support on a Protein Technologies Symphony Multiple Channel Synthesizer.
# [2] = system: Unicortical femoral defects; experiment: Peptide-mediated osteogenesis in cortical bone defects (Example 8); type: in vivo, Fisher 344 rats; conditions: 100 mM peptide in gelfoam, two weeks postoperatively; for Effectiveness at stimulating osteogenesis and cortical bone repair: versus gelfoam+PBS
# Protocol: In an in vivo study, all 13 peptides at a concentration of 100 mM were tested for their ability to potentiate osteogenesis. A gelfoam cylinder 1.5 mm in diameter 2 mm in length was used as carrier for the peptides. Unicortical femoral defects 1.5 mm in diameter were created bilaterally in Fisher 344 rats; the left femoral defect was filled with gelfoam+PBS (Control), and the right femur with gelfoam+peptide. The samples were harvested and examined two weeks postoperatively. To examine the effect of peptide concentration on cortical bone regeneration, peptide L7 (SEQ ID NO:5) was used at 1, 5, and 20 mM. […] The time course of cortical bone repair with 20 mM L7 was examined at 5, 10, 15, and 20 days.
# [3] = system: bone and marrow tissue sections (mouse femur, rib); experiment: Biotinylated peptide binding to bone/marrow tissue sections, Avidin-FITC fluorescence
# Protocol: Methods: Four-week old Swiss Webster mice were euthanized; the femurs were excised and decalcified in 0.25M EDTA in PBS solution for 5 days, and washed in PBS for 24 hours. The femoral shafts were obtained by cutting off the proximal and distal ends of the femur. The femoral shafts were placed in Tissue-Tek O.C.T. Compound (Sukura Finetek, Torrance, Calif.) and frozen at −20° C. overnight. Sections were cut at 10 μm serially with a cryomicrotome, rinsed with 1% BSA in PBS three times. To block non-specific reaction sections were incubated with Avidin/Biotin Blocking Kit (Vector Laboratories, Inc. Burlingame, Calif.) according to the manufacturer's instructions. Following another rinse with PBS, 150 μl 10 mM solution of each biotinylated peptide (L1, L2, L7, R1, R8) was added to the slides and incubated for 1 hour at room temperature. In negative controls, only PBS was added. After rewashes with 1% BSA, 150 μl of 1:50,000 dilution of Avidin-FITC was added to each slide and incubated overnight at 4° C.
# The sections were washed with 1% BSA in PBS and mounted with Vectashield (Vector Laboratories Inc., Burlingame, Calif.). Fluorescence was visualized using a Nikon eclipse E600 microscope (Nikon, Melville, N.Y.) equipped with a 535 nm wavelength fluorescein filter. Images were obtained using a Sony DKC-5000 digital camera (Sony Electronics Inc.) and processed with Adobe Photoshop software (Adobe Systems Incorporated, San Jose, Calif.).
# For localization of peptide binding to cells and tissue sections, biotinylated peptides were synthesized. Fluorescein-isothiocyanate (FITC) labeled Avidin was used to localize the peptides on cells in culture and in tissue sections in vitro by epiluminescence microscopy. In addition, the biotinylated peptides were detected at concentrations as low as 1 μM in slot blots.
# Cryosections of decalcified femurs harvested from 4 week BALB/c mice were incubated with biotinylated peptide and Avidin-FITC. […] The distribution of fluorescence throughout the marrow was uneven. […] In control slides incubated with PBS without peptide, none of the cells could be detected by fluorescence (not shown). […]
# [4] = BALB/c mouse decalcified femur cryosections, biotinylated peptide and Avidin-FITC
# [5] = BALB/c mouse femur cryosections, biotinylated peptide
# [6] = Swiss Webster mouse decalcified femur cryosections, 10 mM biotinylated peptide, 1 hour, Avidin-FITC
# [7] = Swiss Webster mouse femur cryosections, 10 mM biotinylated peptide
Substance,Effect on adherent BAEC (Experiment 1) [1],PERCENT FREQUENCY (bone and bone marrow) [%],PHAGE SEQUENCE FREQUENCY (number of times the sequence was found in a group of plaques) (bone and bone marrow),Effectiveness at stimulating osteogenesis and cortical bone repair [2],"Fluorescence detected in femur sections incubated with peptide [3, 4]","Cell shape preferentially recognized by peptide [3, 5]","Extent of marrow cells detected by fluorescence [3, 5]","Fluorescence detected in femur sections incubated with peptide [3, 6]","Cell shape preferentially recognized by peptide [3, 7]","Extent of marrow cells detected by fluorescence [3, 7]",Histological appearance of repair tissue in the defect [2]
ASN-ASN-VAL-SER-GLN-LYS-TRP-GLN-GLN-ARG-LEU-ILE-GLY-GLY-GLY-SER (NNVSQKWQQRLIGGGS; listed as Homo sapiens) [Peptide L6],"the cells had lifted completely and most of the cells disappeared from the surface of the slides, leaving a lot of cell debris",17.9,5/28,most effective at stimulating osteogenesis and cortical bone repair,–,–,–,–,–,–,–
GLY-ILE-HIS-VAL-PRO-TRP-MET-PRO-PRO-VAL-ALA-PHE-GLY-GLY-GLY-SER (GIHVPWMPPVAFGGGS; listed as Homo sapiens) [Peptide L11],–,3.3,1/30,–,–,–,–,–,–,–,–
LEU-LEU-ALA-ASP-THR-THR-HIS-HIS-ARG-PRO-TRP-THR-GLY-GLY-GLY-SER (LLADTTHHRPWTGGGS; listed as Homo sapiens) [Peptide L2],"no effect, with results similar to PBS",32.1,9/28,least effective for cortical bone repair,Fluorescence was detected,recognized cells with mostly irregular shapes,did not detect as many cells,Fluorescence was detected,recognized cells with mostly irregular shapes,did not detect as many cells,"a considerable amount of gelfoam remaining in the defects, with thinner and more loosely organized cortical bone"
LEU-PRO-TRP-THR-GLU-PRO-SER-PHE-TRP-ARG-THR-PRO-GLY-GLY-GLY-SER (LPWTEPSFWRTPGGGS; homo sapiens) [Peptide D1P1],"no effect, with results similar to PBS",–,–,–,–,–,–,–,–,–,–
LYS-GLU-ILE-PRO-PRO-ILE-PRO-LEU-LEU-ALA-PRO-SER-GLY-GLY-GLY-SER (KEIPPIPLLAPSGGGS; listed as Homo sapiens) [Peptide L5],"the cells had lifted completely and most of the cells disappeared from the surface of the slides, leaving a lot of cell debris",17.9,5/28,virtually no stimulatory effect on osteogenesis,–,–,–,–,–,–,"while some ossification and cortical bone regeneration has occurred, considerable amounts of gelfoam remains in the defect"
SER-SER-THR-LEU-LYS-THR-PHE-PHE-GLY-PHE-PRO-ASP-GLY-GLY-GLY-SER (SSTLKTFFGFPDGGGS; listed as Homo sapiens) [Peptide L14],"no effect, with results similar to PBS",40.0,12/30,least effective for cortical bone repair,–,–,–,–,–,–,"a considerable amount of gelfoam remaining in the defects, with thinner and more loosely organized cortical bone"
THR-MET-ARG-ASN-PRO-ILE-THR-SER-LEU-ILE-SER-VAL-GLY-GLY-GLY-SER (TMRNPITSLISVGGGS; listed as Homo sapiens) [Peptide L1],the cells lifted and formed clusters that stained intensely,28.6,8/28,least effective for cortical bone repair,Fluorescence was detected,recognized the round cells preferentially,did not detect as many cells,Fluorescence was detected,recognized the round cells preferentially,did not detect as many cells,"a considerable amount of gelfoam remaining in the defects, with thinner and more loosely organized cortical bone"
